# Test results: patent US5965524A, “Analogs of viscosin and uses thereof” (Peptide Technologies Corporation, priority 1994, dated 1999)
# Read-outs that look alike come from different tables or passages of the source.
# How the values were obtained:
# [1] = test system: Herpes Simplex Virus 2 (HSV-2); assay: Inhibition of HSV-2 growth in cultured cells; format: cell-based; details: lowest concentration at which 50% of the viruses are rendered noninfective
# Text: Particularly preferred host cells are rabbit skin cells or Vero cells. […] Acyclovir, a known antiherpesviral agent (Douglas, R., Chapter 51 in Goodman and Gilman's the Pharmacological Basis of Therapeutics, 8th Ed., G. Gilman et al., eds., Pergamon Press, New York (1980)), was used as a positive control.
# [2] = Cell toxicity in the HSV-2 assay
# Text: (Davis, B., Chapter 55 in Microbiology, Including Immunology and Molecular Genetics, 3rd Ed., Harper & Row, Philadelphia (1980), p. 1064). Particularly preferred host cells are rabbit skin cells or Vero cells. (Grammer, S., et al., J. Immunol. 145:2249-2253 (1990); Gao, W., et al., J. Biol. Chem. 265:20172-20178 (1990)). […] (See, e.g., Groupe, V., et al., Proc. Soc. Exptl. Biol. Med. 78:354-358 (1951); Mitsuya, H., et al., Science 226:172-174 (1984)). Acyclovir, a known antiherpesviral agent (Douglas, R., Chapter 51 in Goodman and Gilman's the Pharmacological Basis of Therapeutics, 8th Ed., G. Gilman et al., eds., Pergamon Press, New York (1980)), was used as a positive control.
# Leishmania donovani [3] = assay: Effect on growth of L. donovani in serum-containing and serum-free medium; format: cell-based; details: cell densities at 21 hr, in some cases 43 hr, 27° C.; for Lowest concentration with activity against L. Donovani: Growth: serum-containing M199 medium; for Lowest concentration with activity against L. Donovani: Growth (Serum Free Medium): serum-free REIII medium
# Protocol: For the purpose of determining the effect of the compounds on the growth of parasite in serum-containing and serum-free medium, the parasites were harvested from culture medium M199+5% FBS, washed twice in HBSS and resuspended in same at 1×10^8 /mL. Serum-containing M199 ans serum-free REIII media were filtered and sterilized prior to use. The washed cells were added to achieve an initial concentration of 1.66×10^6 cells/mL. Cell densities were determined by hemacytometry at 21 hr, and in some cases at 43 hr of incubation at 27° C.
# Leishmania donovani [4] = assay: Lysis of L. donovani parasites; format: cell-based; details: parasites 1x10^8 per mL in HBSS; examined at 4 hr and after overnight at 27° C.
Molecule,HSV-2 LD50 [1] [µg/mL],Cell Toxicity ([2]; host cells of the HSV-2 assay) [µg/mL],Lowest concentration with activity against L. Donovani: Growth (Leishmania donovani [3]),Lowest concentration with activity against L. Donovani: Growth (Serum Free Medium) (Leishmania donovani [3]),Cell Toxicity [2] [µg/mL],Lowest concentration with activity against L. Donovani: Lysis (Leishmania donovani [4])
"Nc1nc2c(ncn2COCCO)c(=O)[nH]1 [Acyclovir, reference compound]",0.6 to 1.5,–,–,–,–,–
"CCCCCCC[C@@H](O)CC(=O)N[C@@H](CC(C)C)C(=O)N[C@H](CCC(=O)O)C(=O)N[C@@H](C(=O)N[C@@H](C(=O)N[C@@H](CC(C)C)C(=O)N[C@H](CO)C(=O)N[C@@H](CC(C)C)C(=O)N[C@H](CO)C(=O)N[C@H](C(=O)O)[C@@H](C)CC)C(C)C)[C@@H](C)O [Compound 5, Viscosic Acid]",–,> 100,–,–,–,–
"CCCCCCC[C@@H](O)CC(=O)N[C@@H](CC(C)C)C(=O)N[C@H](CCC(=O)O)C(N)=O [Compound 7, D-3-Hydroxydecanoyl-L-Leu-D-Glu-Amide]",> 100,–,no effect,no effect,> 100,no effect
"CCCCCCC[C@@H](O)CC(=O)N[C@@H](CC(C)C)C(=O)N[C@H](CCC(=O)OCc1ccccc1)C(=O)Nc1ccc2c(c1)OCCOCCOCCOCCO2 [Compound 10, 15-[[N-[N-[D-3-Hydroxydecanoyl]-L-Leucyl]-O-(phenylmethyl)-D-glutamyl]amino]-2,3,5,6,8,9,11,12-octahydro-1,4,7,10,13-benzopentaoxacyclopentadecin]",> 100,–,100 mg/mL,100 mg/mL,> 100,30 mg/mL
"CCCCCCC[C@@H](O)CC(=O)N[C@@H](CC(C)C)C(=O)N[C@H](CCC(=O)O)C(=O)Nc1ccc2c(c1)OCCOCCOCCOCCO2 [Compound 11, 15-[[N-[N-[D-3-Hydroxydecanoyl]-L-Leucyl]-D-glutamyl]amino]-2,3,5,6,8,9,11,12-octahydro-1,4,7,10,13-benzopentaoxacyclopentadecin]",> 100,–,no effect,no effect,> 100,no effect
"CCCCCCCCCC(=O)N[C@@H](CC(C)C)C(=O)N[C@H](CCC(=O)OCc1ccccc1)C(=O)Nc1ccc2c(c1)OCCOCCOCCOCCO2 [Compound 12, 15-[[N-[N-[Decanoyl]-L-Leucyl]-O-(phenylmethyl)-D-glutamyl]amino]-2,3,5,6,8,9,11,12-octahydro-1,4,7,10,13-benzopentaoxacyclopentadecin]",> 50,–,no effect,no effect,100,100 mg/mL
"CCCCCCCCCC(=O)N[C@@H](CC(C)C)C(=O)N[C@H](CCC(=O)O)C(=O)Nc1ccc2c(c1)OCCOCCOCCOCCO2 [Compound 13, 15-[[N-[N-[Decanoyl]-L-Leucyl]-D-glutamyl]amino]-2,3,5,6,8,9,11,12-octahydro-1,4,7,10,13-benzopentaoxacyclopentadecin]",> 100,–,no effect,no effect,> 100,no effect
CCCCCCCCCCCCCCC(CCC(=O)OCc1ccccc1)C(=O)Nc1ccc2c(c1)OCCOCCOCCOCCO2 (stereo not shown) [Compound 14],> 33,–,100 mg/mL,10 mg/mL,100,30 mg/mL
CCCCCCCCCCCCCCC(CCC(=O)O)C(=O)Nc1ccc2c(c1)OCCOCCOCCOCCO2 (stereo not shown) [Compound 15],11,–,30 mg/mL,10 mg/mL,33,30 mg/mL
CC(=O)Nc1ccc2c(c1)OCCOCCOCCOCCO2 [Compound 16],> 100,–,–,–,> 100,–
"CCCCCCCCCCCCCCCCCC(=O)c1ccc2c(c1)OCCOCCOCCOCCO2 [Compound 42, Octadecanoyl benzo-15-Crown-5-ether]",> 100,–,–,–,> 100,–
Deshydroxy Viscosin [Compound 3],19 to 28,–,–,–,–,–
Octadecanoyl Viscosin [Compound 4],> 100,–,–,–,–,–
